What was measured:
[1] = cited from earlier work
[2] = tested on: DCP-producing HCC cell line; conditions: in vitro; Hepatology 1995, 22:876-82; cited from earlier work
[3] = tested on: MMP-3; assay: MMP protein expression in hepatic cancer cells, Western blot; assay type: cell-based; conditions: VK-II added to hepatic cancer cells
Source text: (§1) The action of VK-II according to the present application with regard to invasion/metastasis of hepatic cancer cells was studied in vitro. The action on invasion ability was investigated through an invasion assay using HepG2 cells and a Matrigel chamber. […] Regarding the action on the metastasis ability, the action of VK-II on the expression of extracellular matrix metalloproteinases (MMPs) was investigated using the Western blot method. […] From the above, although the data is in vitro, it can be presumed that VK-II inhibits invasion/metastasis of hepatic cancer cells.

[4] = tested on: MMP-1; assay: as above; assay type: cell-based; conditions: VK-II added to hepatic cancer cells
Source text: as §1

[5] = tested on: HepG2 cells; assay: Invasion assay using HepG2 cells and a Matrigel chamber; assay type: cell-based; conditions: upon adding VK-II; depending on the concentration
Source text: as §1

[6] = tested on: DCP positive hepatic cancer patients; assay: Trial Example 1: randomized prospective controlled clinical trial of oral VK-II after hepatic cancer treatment; assay type: in vivo, human; conditions: treated group
Experimental: A clinical trial (randomized prospective controlled study) was carried out as follows.
Out of patients with hepatocellular carcinoma, ones having a serum DCP level above 60 IU/L (DCP positive hepatic cancer) were included in the trial. On the other hand, patients having portal venous invasion, and patients in which there was already VK metabolism through administration of VK or an anti-VK agent, were excluded from the trial.
126 hepatic cancer patients were given treatment from February 1999 to November 2001. As the hepatic cancer treatment, percutaneous cauterization therapy (RFA and/or PEIT) for HCC, treatment via the blood vessels (TAE or TAI), or surgical excision was carried out. Of the patients, 5 were excluded from the present trial.
Next, the remaining 121 patients were randomly divided into a treated group (n=60) and an untreated group (n=61). The treated group were orally administered 45 mg/day of VK-II (proprietary name Glakay, made by Eisai Co., Ltd.) after the hepatic cancer treatment, while the untreated group were not administered VK-II.
Follow-up tests were carried out after the hepatic cancer treatment. As the follow-up tests, ultrasonography (abdominal echography) was carried out every 3 months, a CT scan was carried out every 6 months, and the levels of the tumor markers alpha-fetoprotein and DCP were measured every one month.
Statistical analysis was carried out on the PVI incidence rate and the survival rate for the two groups. That is, calculations were carried out using the Cox proportional hazard model, and a test was carried out using the log-rank method. The average observation period was 12±8 months.

[7] = tested on: hepatocellular carcinoma patients after treatment; assay: Trial Example 2: trial of VK-II in inhibiting recurrence of hepatocellular carcinoma after treatment; assay type: in vivo, human; conditions: for risk ratio for recurrence of hepatic cancer: Cox proportional hazard model, control group = 1; for time period until 50% recurrence: control group 10 months
Experimental: A trial was carried out as follows with an objective of investigating the effect and safety of VK-II in inhibiting recurrence of hepatocellular carcinoma after treatment. 61 cases in which hepatocellular carcinoma was diagnosed and then after treatment therefor necrosis (or curative excision) was judged by contrast CT to have completely occurred were entered from March 1999 to March 2001, the entered cases were divided into two groups, namely a VK-II-administered group for which the end of the patient ID number was an odd number and a non-administered group (control group) for which the end of the patient ID number was an even number, and a VK-II preparation (proprietary name […], made by Eisai Co., Ltd.) was orally administered at a dose of 45 mg/day to the administered group. Contrast CT or MRI was carried out every 3 months, and a statistical analysis of the time period until recurrence was carried out. Specifically, comparison was carried out using the Kaplan-Meier method (log-rank test), and the risk ratio for recurrence was analyzed using the Cox proportional hazard model.

CC(C)=CCC/C(C)=C/CC/C(C)=C/CC/C(C)=C/CC1=C(C)C(=O)c2ccccc2C1=O [VK-II, 2-methyl-3-tetraprenyl-1,4-naphthoquinone]
solubility in water [1]: hardly dissolves in water | cell proliferation [2]: inhibited | MMP-3 protein expression [3]: inhibited | MMP-1 protein expression [4]: inhibited | number of cells passing through the Matrigel [5]: dropped | PVI incidence rate ([6]; after 1 year, 45 mg/day oral, untreated group 23%): 2% | survival rate ([6]; after 2 years, 45 mg/day oral, untreated group 28% (P=0.044)): 66% | PVI incidence rate ([6]; after 2 years, 45 mg/day oral, untreated group 47% (P=0.018)): 23% | DCP level in the serum after hepatic cancer treatment ([6]; 45 mg/day oral VK-II (Glakay), for 12 months, untreated group gradually increased): remained approximately constant | side effects ([7]; 45 mg/day oral): no side effects | risk ratio for recurrence of hepatic cancer ([7]; HCV cases only): 0.210 | risk ratio for recurrence of hepatic cancer ([7]; all cases): 0.329 | time period until 50% recurrence ([7]; HCV cases only): 26 months | 1-year cumulative recurrence rate ([7]; HCV cases only, control group 61.5%): 7.1% | 2-year cumulative recurrence rate ([7]; HCV cases only, control group 87.2%): 37.8% | DCP upon recurrence ([7]; all cases of recurrence in the VK-II-administered group): negative | 1-year cumulative recurrence rate ([7]; all cases, 45 mg/day oral, control group 55.2%): 12.5% | 2-year cumulative recurrence rate ([7]; all cases, 45 mg/day oral, control group 85.5%): 39.6% | time period until 50% recurrence ([7]; all cases): 26 months | hepatic cancer cumulative recurrence rate compared with the control group ([7]; excluding cases of local recurrence (29 vs 22 cases)): statistically significantly suppressed | hepatic cancer cumulative recurrence rate compared with the control group ([7]; excluding cases of recurrence within 6 months (31 vs 22 cases)): statistically significantly suppressed

Reference: US7138433B2, “Quinone-based therapeutic agent for hepatopathy” (Eisai Co., Ltd., priority 2002, dated 2006)
